Assay results taken from paper PMC8948214, “Transport efficiency of AtGTR1 dependents on the hydrophobicity of transported glucosinolates” (Scientific Reports, 2022).

T1: AtGTR1 (Arabidopsis thaliana, UniProt Q944G5)
T1 construct: gene NPF2.10; full-length synthesized cDNA with C-terminal 8-His-tag in pESC-URA; expressed in S. cerevisiae FGY217; theoretical 68 kDa; homodimer after purification
T1 sequence (Q944G5 31-636): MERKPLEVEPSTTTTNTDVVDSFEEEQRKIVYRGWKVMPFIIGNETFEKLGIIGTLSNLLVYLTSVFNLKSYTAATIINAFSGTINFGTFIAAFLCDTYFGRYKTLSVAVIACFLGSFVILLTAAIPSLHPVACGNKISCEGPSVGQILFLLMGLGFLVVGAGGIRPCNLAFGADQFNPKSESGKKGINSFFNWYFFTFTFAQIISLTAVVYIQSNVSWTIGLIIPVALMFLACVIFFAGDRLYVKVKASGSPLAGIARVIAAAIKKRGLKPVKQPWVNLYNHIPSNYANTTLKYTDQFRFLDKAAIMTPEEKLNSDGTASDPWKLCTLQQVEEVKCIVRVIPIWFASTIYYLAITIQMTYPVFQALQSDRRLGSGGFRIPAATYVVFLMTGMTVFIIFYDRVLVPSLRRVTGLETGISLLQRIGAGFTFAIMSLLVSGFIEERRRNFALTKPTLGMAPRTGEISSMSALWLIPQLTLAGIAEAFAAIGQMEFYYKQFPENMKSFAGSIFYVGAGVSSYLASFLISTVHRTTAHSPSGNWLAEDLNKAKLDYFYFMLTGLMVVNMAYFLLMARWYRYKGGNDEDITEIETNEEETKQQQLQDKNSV


Columns and labels:
AtGTR1 = molecular target: T1, AtGTR1; experiment: inhibition of glucotropaeolin uptake in yeast, RP-HPLC; format: cell-based
[1] = substrate: O=S(=O)(O)O/N=C(/Cc1c[nH]c2ccccc12)S[C@@H]1O[C@H](CO)[C@@H](O)[C@H](O)[C@H]1O; experiment: yeast uptake assay, RP-HPLC of desulfo-glucosinolate; format: cell-based, Arabidopsis thaliana; conditions: 15 min uptake, 2.5-320 μM substrate, pH 5.5, 30 °C, proton-coupled, apparent
[2] = substrate: O=S(=O)(O)O/N=C(\Cc1ccccc1)S[C@@H]1O[C@H](CO)[C@@H](O)[C@H](O)[C@H]1O; experiment: as above; format: cell-based, Arabidopsis thaliana; conditions: 15 min uptake, 2.5-320 μM substrate, pH 5.5, 30 °C, proton-coupled, apparent

| Molecule | IC50 (AtGTR1) | Km [1] | Km [2] |
| --- | --- | --- | --- |
| O=C(O)Cc1c[nH]c2ccccc12 [IAA, 3-indoleacetic acid] | 762 ± 48.1 µM |  |  |
| AtGTR1 (Arabidopsis thaliana) (protein, full-length synthesized cDNA with C-terminal 8-His-tag in pESC-URA; expressed in S. cerevisiae FGY217; theoretical 68 kDa; homodimer after purification) MERKPLEVEPSTTTTNTDVVDSFEEEQRKIVYRGWKVMPFIIGNETFEKLGIIGTLSNLLVYLTSVFNLKSYTAATIINAFSGTINFGTFIAAFLCDTYFGRYKTLSVAVIACFLGSFVILLTAAIPSLHPVACGNKISCEGPSVGQILFLLMGLGFLVVGAGGIRPCNLAFGADQFNPKSESGKKGINSFFNWYFFTFTFAQIISLTAVVYIQSNVSWTIGLIIPVALMFLACVIFFAGDRLYVKVKASGSPLAGIARVIAAAIKKRGLKPVKQPWVNLYNHIPSNYANTTLKYTDQFRFLDKAAIMTPEEKLNSDGTASDPWKLCTLQQVEEVKCIVRVIPIWFASTIYYLAITIQMTYPVFQALQSDRRLGSGGFRIPAATYVVFLMTGMTVFIIFYDRVLVPSLRRVTGLETGISLLQRIGAGFTFAIMSLLVSGFIEERRRNFALTKPTLGMAPRTGEISSMSALWLIPQLTLAGIAEAFAAIGQMEFYYKQFPENMKSFAGSIFYVGAGVSSYLASFLISTVHRTTAHSPSGNWLAEDLNKAKLDYFYFMLTGLMVVNMAYFLLMARWYRYKGGNDEDITEIETNEEETKQQQLQDKNSV |  | 8.2 ± 0.60 µM | 13.6 ± 1.55 µM |

More lines, main results first:

| IC50 (AtGTR1) | Molecule | Km [1] | Km [2] |
| --- | --- | --- | --- |
| 938 ± 114 µM | CC/C=C\C[C@H]1C(=O)CC[C@@H]1CC(=O)O [JA, jasmonic acid] |  |  |
| 630 ± 47.5 µM | O=C(O)c1ccccc1O [SA, salicylic acid] |  |  |
